The test relates to CD8F1 mice, subcutaneous mammary adenocarcinoma, T/C%. Kind of test: NCI In Vivo Anticancer Drug Screen. Data for tumor model Mammary Adenocarcinoma CD8F1 (subcutaneous) in CD8F1. The following applies: higher = larger tumour. The gist of the method: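 Mice carrying transplanted tumors received test compound, and survival or tumor size was recorded. Each value is the treated-group measurement divided by the corresponding measurement in vehicle-dosed controls.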

The mark [1] stands for this setting: endpoint: median tumor weight (est.), dose: 25.0 mg/kg/injection, schedule: Q07DX005 (ip), vehicle: Klucel (hydroxypropylcellulose) (HPC).
The mark [2] stands for this setting: endpoint: median tumor weight (est.), dose: 50.0 mg/kg/injection, schedule: Q07DX005 (ip), vehicle: Klucel (hydroxypropylcellulose) (HPC).
Where [3] appears, read: endpoint: median tumor weight (est.), dose: 100.0 mg/kg/injection, schedule: Q07DX005 (ip), vehicle: Klucel (hydroxypropylcellulose) (HPC).
Setting [4] is: endpoint: median tumor weight (est.), dose: 200.0 mg/kg/injection, schedule: Q07DX005 (ip), vehicle: Klucel (hydroxypropylcellulose) (HPC).
[5] abbreviates: endpoint: median tumor weight (est.), dose: 3.0 mg/kg/injection, schedule: Q07DX005 (ip), vehicle: saline.
The mark [6] stands for this setting: endpoint: median tumor weight change, dose: 250.0 mg/kg/injection, schedule: Q01DX001 (ip), vehicle: saline with Tween-80.

Drawing on PubChem BioAssay AID220 (DTP/NCI, 2004), this text covers T/C for 16 molecules.

Molecules are shown by their SMILES. Several values for one entry are separate records, joined by “and”; a condition that tells them apart may be missing. Identical values can stand only once. Inconclusive results are not listed.

With `Cn1cnc([N+](=O)[O-])c1[Se]c1nc(N)nc2nc[nH]c12`, the T/C is 109 % of control (endpoint: median tumor weight (est.), dose: 6.25 mg/kg/injection, schedule: Q07DX005 (ip), vehicle: water); 104 % of control (endpoint: median tumor weight (est.), dose: 12.5 mg/kg/injection, schedule: Q07DX005 (ip), vehicle: water); 173 % of control (endpoint: median tumor weight (est.), dose: 25.0 mg/kg/injection, schedule: Q07DX005 (ip), vehicle: water); 215 % of control (endpoint: median tumor weight (est.), dose: 50.0 mg/kg/injection, schedule: Q07DX005 (ip), vehicle: water); 107 % of control (endpoint: median tumor weight (est.), dose: 200.0 mg/kg/injection, schedule: Q07DX005 (ip), vehicle: water).

Take `Cc1[nH]c(=O)[nH]c(=O)c1N(CCF)CCCl`: the T/C is 113 % of control (endpoint: median tumor weight (est.), dose: 2.5 mg/kg/injection, schedule: Q07DX005 (ip), vehicle: Klucel (hydroxypropylcellulose) (HPC)); 97 % of control (endpoint: median tumor weight (est.), dose: 5.0 mg/kg/injection, schedule: Q07DX005 (ip), vehicle: Klucel (hydroxypropylcellulose) (HPC)); 79 % of control (endpoint: median tumor weight (est.), dose: 10.0 mg/kg/injection, schedule: Q07DX005 (ip), vehicle: Klucel (hydroxypropylcellulose) (HPC)); 63 % of control (endpoint: median tumor weight (est.), dose: 20.0 mg/kg/injection, schedule: Q07DX005 (ip), vehicle: Klucel (hydroxypropylcellulose) (HPC)); 68 % of control (endpoint: median tumor weight change, dose: 100.0 mg/kg/injection, schedule: Q01DX001 (ip), vehicle: Klucel (hydroxypropylcellulose) (HPC)).

Turning to `O=C1N[C@@H]2C(=C[C@H](O)[C@@H](O)[C@H]2O)c2cc3c(c(O)c21)OCO3`, the T/C by setting is: (endpoint: median tumor weight change, dose: 3.12 mg/kg/injection, schedule: Q01DX001 (ip), vehicle: saline with Tween-80) 75 % of control; (endpoint: median tumor weight change, dose: 6.25 mg/kg/injection, schedule: Q01DX001 (ip), vehicle: saline with Tween-80) 90 % of control; (endpoint: median tumor weight change, dose: 12.5 mg/kg/injection, schedule: Q01DX001 (ip), vehicle: saline with Tween-80) 60 % of control.

In the case of `COc1cc(Cc2nccc3cc(OC)c(OC)cc23)c(C(C)=O)c(OC)c1`, the T/C runs as follows: (endpoint: median tumor weight (est.), dose: 10.0 mg/kg/injection, schedule: Q07DX005 (ip), vehicle: suspension in saline) 57 % of control; (endpoint: median tumor weight (est.), dose: 20.0 mg/kg/injection, schedule: Q07DX005 (ip), vehicle: suspension in saline) 45 % of control; (endpoint: median tumor weight (est.), dose: 40.0 mg/kg/injection, schedule: Q07DX005 (ip), vehicle: suspension in saline) 46 % of control; (endpoint: median tumor weight (est.), dose: 80.0 mg/kg/injection, schedule: Q07DX005 (ip), vehicle: suspension in saline) 61 % of control; (endpoint: median tumor weight (est.), dose: 160.0 mg/kg/injection, schedule: Q07DX005 (ip), vehicle: suspension in saline) 49 % of control.

Take `N#CCCN(C(=S)Nc1cccc(C(F)(F)F)c1)C1CCCCC1`: the T/C is 66 % of control under setting [1]; 116 % of control under setting [2]; 75 % of control under setting [3]; 60 % of control under setting [4]; 38 % of control (endpoint: median tumor weight (est.), dose: 400.0 mg/kg/injection, schedule: Q07DX005 (ip), vehicle: Klucel (hydroxypropylcellulose) (HPC)); 60 % of control (endpoint: median tumor weight (est.), dose: 800.0 mg/kg/injection, schedule: Q07DX005 (ip), vehicle: Klucel (hydroxypropylcellulose) (HPC)).

As for `NC(=O)c1ccc[n+](Cc2c(Cl)cccc2Cl)c1`, the T/C runs as follows: under setting [5], 171 % of control; (endpoint: median tumor weight (est.), dose: 6.0 mg/kg/injection, schedule: Q07DX005 (ip), vehicle: saline) 102 % of control; (endpoint: median tumor weight (est.), dose: 12.0 mg/kg/injection, schedule: Q07DX005 (ip), vehicle: saline) 211 % of control; (endpoint: median tumor weight (est.), dose: 48.0 mg/kg/injection, schedule: Q07DX005 (ip), vehicle: saline) 186 % of control.

Take `CN(C=O)C(C(=O)Nc1cccc2c(OC(=O)C(N(C)C=O)(N(C)C=O)N(C)C=O)c(N=Nc3ccc(S(=O)(=O)Nc4nccs4)cc3)cc(N=Nc3ccc(S(=O)(=O)Nc4nccs4)cc3)c12)(N(C)C=O)N(C)C=O` (tested in a mixture with another compound): the T/C is, setting by setting: under setting [6], 100 % of control; (endpoint: median tumor weight change, dose: 1000.0 mg/kg/injection, schedule: Q01DX001 (ip), vehicle: saline with Tween-80) 119 % of control; (endpoint: median tumor weight change, dose: 2000.0 mg/kg/injection, schedule: Q01DX001 (ip), vehicle: saline with Tween-80) 63 % of control.

For the molecule `CC[C@](C)(O)C(=O)O[C@H]1C(=O)O[C@@H]2C[C@H]3C(C)=CC(=O)[C@@H](O)[C@]3(C)[C@H]3[C@@]4(O)OC[C@]32[C@@H]1[C@@H](C)[C@H]4O`, the T/C is, setting by setting: (endpoint: median tumor weight (est.), dose: 0.06 mg/kg/injection, schedule: Q07DX005 (ip), vehicle: Klucel (hydroxypropylcellulose) (HPC)) 116 % of control; (endpoint: median tumor weight (est.), dose: 0.12 mg/kg/injection, schedule: Q07DX005 (ip), vehicle: Klucel (hydroxypropylcellulose) (HPC)) 108 % of control; (endpoint: median tumor weight (est.), dose: 0.5 mg/kg/injection, schedule: Q07DX005 (ip), vehicle: Klucel (hydroxypropylcellulose) (HPC)) 73 % of control; (endpoint: median tumor weight change, dose: 1.0 mg/kg/injection, schedule: Q01DX001 (ip), vehicle: Klucel (hydroxypropylcellulose) (HPC)) 79 % of control.

`COc1cccc2c1C(=N)c1c(O)c3c(c(O)c1C2=O)C[C@@](O)(C(C)=O)C[C@@H]3OC1CC(N)C(O)C(C)O1` (stereo not given in full): the T/C reads like this: (endpoint: median tumor weight (est.), dose: 2.0 mg/kg/injection, schedule: Q07DX005 (ip), vehicle: saline) 53 % of control; (endpoint: median tumor weight (est.), dose: 2.97 mg/kg/injection, schedule: Q07DX005 (ip), vehicle: saline) 50 % of control; under setting [5], 115 % of control; (endpoint: median tumor weight (est.), dose: 4.45 mg/kg/injection, schedule: Q07DX005 (ip), vehicle: saline) 53 % of control; (endpoint: median tumor weight (est.), dose: 4.5 mg/kg/injection, schedule: Q07DX005 (ip), vehicle: saline) 96 % of control.

Turning to `O=C1C(=O)c2cccnc2-c2ncccc21`, the T/C reads like this: (endpoint: median tumor weight change, dose: 1.56 mg/kg/injection, schedule: Q01DX001 (ip), vehicle: Klucel (hydroxypropylcellulose) (HPC)) 107 % of control; (endpoint: median tumor weight change, dose: 3.12 mg/kg/injection, schedule: Q01DX001 (ip), vehicle: Klucel (hydroxypropylcellulose) (HPC)) 117 % of control.

Consider `Clc1ccc2nnnn2n1`, for which the T/C was 49 % of control (endpoint: median tumor weight change, dose: 125.0 mg/kg/injection, schedule: Q01DX001 (ip), vehicle: saline with Tween-80) and 61 % of control under setting [6].

In the case of `O=C(NC1CCCCC1)OCc1c(COC(=O)NC2CCCCC2)c(-c2ccc(Cl)c(Cl)c2)n2c1CCC2`, the T/C by setting is: (endpoint: median tumor weight (est.), dose: 25.0 mg/kg/injection, schedule: Q07DX005 (ip), vehicle: saline with Tween-80) 94 % of control; (endpoint: median tumor weight (est.), dose: 50.0 mg/kg/injection, schedule: Q07DX005 (ip), vehicle: saline with Tween-80) 72 % of control; (endpoint: median tumor weight (est.), dose: 100.0 mg/kg/injection, schedule: Q07DX005 (ip), vehicle: saline with Tween-80) 20 % of control; (endpoint: median tumor weight (est.), dose: 200.0 mg/kg/injection, schedule: Q07DX005 (ip), vehicle: saline with Tween-80) 28 % of control.

In the case of `CN(C)N=Nc1cn[nH]c1C(N)=O`, the T/C under setting [1] was 97 % of control, the T/C under setting [2] is 56 % of control, the T/C under setting [3] is 73 % of control and the T/C under setting [4] was 57 % of control.

For the molecule `CC(=O)CC(=O)CCC(=O)O`, the T/C by setting is: (endpoint: median tumor weight change, dose: 125.0 mg/kg/injection, schedule: Q01DX001 (ip), vehicle: saline) 62 % of control; (endpoint: median tumor weight change, dose: 250.0 mg/kg/injection, schedule: Q01DX001 (ip), vehicle: saline) 65 % of control.

Turning to `O=c1[nH]c(=O)n(C2CC(O)C(CO)O2)cc1I` (stereo not given), the T/C runs as follows: (endpoint: median tumor weight (est.), dose: 182.87 mg/kg/injection, schedule: Q07DX005 (ip), vehicle: saline with Tween-80) 99 % of control; (endpoint: median tumor weight (est.), dose: 365.75 mg/kg/injection, schedule: Q07DX005 (ip), vehicle: saline with Tween-80) 76 % of control; (endpoint: median tumor weight (est.), dose: 731.5 mg/kg/injection, schedule: Q07DX005 (ip), vehicle: saline with Tween-80) 91 % of control; (endpoint: median tumor weight (est.), dose: 800.0 mg/kg/injection, schedule: Q07DX005 (ip), vehicle: saline with Tween-80) 45 % of control and 50 % of control; (endpoint: median tumor weight (est.), dose: 1463.0 mg/kg/injection, schedule: Q07DX005 (ip), vehicle: saline with Tween-80) 50 % of control; (endpoint: median tumor weight (est.), dose: 1600.0 mg/kg/injection, schedule: Q07DX005 (ip), vehicle: saline with Tween-80) 46 % of control and 53 % of control. For the same molecule, where the note is “endpoint: median tumor weight (est.), dose: 3200.0 mg/kg/injection, schedule: Q07DX005 (ip), vehicle: saline with Tween-80”, the T/C is 7 % of control and 10 % of control.

Turning to `NC(Cn1ccc(=O)c(O)c1)C(=O)O` (stereo not given), the T/C by setting is: (endpoint: median tumor weight change, dose: 100.0 mg/kg/injection, schedule: Q01DX001 (ip), vehicle: saline) 82 % of control; (endpoint: median tumor weight change, dose: 200.0 mg/kg/injection, schedule: Q01DX001 (ip), vehicle: saline) 69 % of control; (endpoint: median tumor weight change, dose: 400.0 mg/kg/injection, schedule: Q01DX001 (ip), vehicle: saline) 52 % of control; (endpoint: median tumor weight change, dose: 1600.0 mg/kg/injection, schedule: Q01DX001 (ip), vehicle: saline) 72 % of control.
